Series [1] addresses GABA post-synaptic receptor. Nature of the series: Displacement of tritiated GABA from its post-synaptic receptor (Enna and Snyder method), suspension of synaptic membrane. As to conditions: in vitro, tritiated GABA 2.9 nM final concentration. It counts as binding. As to the method: The therapeutic activity of the products according to the invention has been studied.
The study was carried out in accordance with the method of ENNA and SNYDER (Brain Research 100, 81-97, 1975). The experiment was carried out in vitro in the presence of a suspension of synaptic membrane and tritiated GABA at a final concentration of 2.9 nM.
The results are expressed in Inhibit Concentration 50 (IC50), i.e. the micromolar concentration which inhibits 50% of the fixation of the GABA on its post-synaptic receptor.

A further series relates to mouse. Nature of the series: Acute toxicity in the mouse. The format is in vivo. The conditions noted are these: 100 mg/kg intraperitoneal. The text has this:
The products according to the invention may be administered by the oral route or by the injectable route.

In series [2] the test system is reserpine-induced ptosis in the mouse. Kind of series: Antagonism of reserpine-induced ptosis in the mouse. The conditions noted are these: 100 mg/kg intraperitoneal; reserpine 2 mg/kg intravenous at the same time; female mice; one hour after administration. The format is in vivo. As to the method: The anti-depressant properties of the products according to the invention have been studied in the animal. The anti-depressant activity was assessed in the test of antagonism of reserpine-induced ptosis in the mouse.
The study was carried out on batches of 10 female mice weighing 20±1 g. The products to be studied were administered by the intraperitoneal route at the same time as the reserpine by the intravenous route at the dose of 2 mg/kg.
In parallel, a control batch received only the vehicle of administration of the product to be studied and the reserpine.
One hour after administration, the animals were observed individually. All the animals of the control batch presented ptosis. For the treated batches, the animals not presenting ptosis were counted and the percentage of the animals where the ptosis was antagonized were determined.

Where [3] appears, read: read-out: IC50 (concentration which inhibits 50% of the fixation of the GABA on its post-synaptic receptor).

Molecules are shown by their SMILES. Counter-ions that a name gives are not always drawn. Like-named read-outs stand apart in the source and are kept apart here.

Regarding `N=c1ccc(-c2ccsc2)nn1Cc1cc(O)no1` [SR 95893], the IC50 in series [1] (setting [3]) worked out at 1600 nM.

`N=c1ccc(-c2ccccc2)nn1Cc1cc(O)no1` [SR 95812]: in series [1] (listed as 95812, read-out: IC50 (concentration which inhibits 50% of the fixation of the GABA on its post-synaptic receptor)), the IC50 was determined as 1200 nM.

For `N=c1ccc(-c2ccccc2)nn1Cc1cc(O)no1` [SR 95884], the IC50 in series [1] (listed as 95884, read-out: IC50 (concentration which inhibits 50% of the fixation of the GABA on its post-synaptic receptor)) came to 1800 nM.

On to `Cc1cc(-c2ccccc2)nn(Cc2cc(O)no2)c1=N` [SR 95538, 2-[(3-hydroxy 5-isoxazolyl)methyl]-3-imino-4-methyl-6-phenyl-2,3-dihydro-pyridazine, hydrobromide], for which, in the series on mouse, the “sign of acute toxicity” value is given as “no sign of acute toxicity”. Besides, the “animals in which ptosis was antagonized (inhibits ptosis)” value in series [2] amounted to 30%. Also, in series [1] (setting [3]), the IC50 came to 1000 nM.

On to `N=c1c2ccccc2c(-c2ccccc2)nn1Cc1cc(O)no1` [SR 95894], for which the IC50 in series [1] (setting [3]) was 120 nM.

With `N=c1ccc(-c2ccc3c(c2)OCO3)nn1Cc1cc(O)no1` [SR 95895], in series [1] (setting [3]), the IC50 amounted to 75 nM.

Regarding `Cc1nn(Cc2cc(O)ns2)c(=N)cc1-c1ccccc1` [SR 95886], in series [1] (setting [3]), the IC50 was found to be 6600 nM.

With `N=c1ccc(-c2ccc(Cl)cc2)nn1Cc1cc(O)ns1` [SR 95885, 2-[(3-hydroxy-5-isothiazolyl)methyl]-3-imino-6-(4-chloro-phenyl)-2,3-dihydro-pyridazine, hydrobromide], the IC50 in series [1] (setting [3]) worked out at 150 nM.
